According to patent publication US7718687B2, “Prodrugs of mitotic kinesin inhibitors” (Merck Sharp & Dohme Corp.,, priority 2004, dated 2010):

Biological target: T1, human KSP motor domain (KSP(367H)) (Homo sapiens, UniProt P52732)
T1 construct: were used to amplify the motor domain and the neck linker region; made in house; host or cells: E. coli BL21 (DE3), vector pRSETa
T1 sequence (P52732 18-359 limits assumed): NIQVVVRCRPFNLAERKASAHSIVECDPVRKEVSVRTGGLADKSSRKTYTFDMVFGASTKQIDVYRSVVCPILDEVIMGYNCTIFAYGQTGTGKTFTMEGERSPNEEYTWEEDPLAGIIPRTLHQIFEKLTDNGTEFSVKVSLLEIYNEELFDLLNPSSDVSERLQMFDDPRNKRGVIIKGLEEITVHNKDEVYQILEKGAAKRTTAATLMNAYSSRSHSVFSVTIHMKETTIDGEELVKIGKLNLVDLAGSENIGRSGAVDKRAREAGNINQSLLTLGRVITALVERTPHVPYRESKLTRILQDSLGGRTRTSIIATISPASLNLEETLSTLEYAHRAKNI
Assay: Kinesin ATPase In Vitro Assay
Format: biochemical
Settings: enantiomers of 1-5 resolved on Chiralpak AD; assay not stated
Description: I. Kinesin ATPase In Vitro Assay
Cloning and Expression of Human Poly-Histidine Tagged KSP Motor Domain (KSP(367H))
Plasmids for the expression of the human KSP motor domain construct were cloned by PCR using a pBluescript full length human KSP construct (Blangy et al., Cell, vol. 83, pp 1159-1169, 1995) as a template. The N-terminal primer 5′-[…] (SEQ.ID.NO.: 1) and the C-terminal primer 5′-[…] […] (SEQ.ID.NO.: 2) were used to amplify the motor domain and the neck linker region. The PCR products were digested with AseI and XhoI, ligated into the NdeI/XhoI digestion product of pRSETa (Invitrogen) and transformed into E. coli BL21 (DE3).
Cells were grown at 37° C. to an OD600 of 0.5. […]
The kinesin motor domain is incubated with microtubules, 1 mM ATP (1:1 MgCl2: Na-ATP), and compound at 23° C. in buffer containing 80 mM K-HEPES (pH 7.0), 1 mM EGTA, 1 mM DTT, 1 mM MgCl2, and 50 mM KCl. […] Free phosphate from the ATP hydrolysis reaction is measured via a quinaldine red/ammonium molybdate assay by adding a […] of quench C (e.g., to a mixture of 40 μl reaction volume+40 μl stop buffer is then added 120 μl quench C). […] Quench C is a 2:1 ratio of quench A:quench B The reaction is incubated for 5-10 minutes at 23° C., and the absorbance of the phospho-molybdate complex is measured at 540 nm.

- activity of resolved enantiomer (active / inactive): active
SMILES: CC(=O)N1N=C(c2cc(F)ccc2F)C[C@@]1(CCCO)c1ccccc1 (single isomer, unassigned; isomer 3) [(S) isomer]
